# Tests used:
# Type in all cases: in vivo, rat
# blood sugar level [1] = assay: Test Example 6: effect of branched amino acids in blood sugar elevation model by glucose (blood sugar level); conditions: Pentobarbital anesthesia; for time at which blood sugar level reached the maximum (peak): after the start of test, 5 weight % glucose-1.8% amino acid i.v.
# Experimental: A blood sugar elevation model was made by intravenous administration of glucose to the living body, and the effect was examined with parallel administration of leucine, isoleucine and valine in the above-mentioned model.
# (§1) Rats were pre-treated in a similar manner to Test Example 4, and anesthesia in the rats was maintained for 3 hours by intravenous continuous administration of Pentobarbital in a similar manner to Test Example 4. […] Blood was collected (100 μL) through the catheter for administration of aqueous amino acid solution before the start of administration, 30 minutes, 90 minutes, and 180 minutes after the start of administration respectively. And then, the blood sugar level and serum insulin value were determined according to Test Example 1.
# blood sugar level [2] = assay: Test Example 8: inhibition of blood sugar elevation by oral isoleucine during sugar tolerance, non-anesthesia vs anesthesia; conditions: 0.5 g/10 mL/kg isoleucine orally, 3 g glucose/kg orally 30 minutes later
# Experimental: Non-anesthesia group: rats under overnight fasting conditions were divided into groups by body weight, blood was collected from a tail vein (Pre Value). To a control group and a sample solution group was orally administered 0.5 g/10 mL/kg of OTSUKA distilled water (water for injection; manufactured by OTSUKA PHAMACEUTICAL FACTORY, INC.) and 0.5 g/10 mL/kg of aqueous isoleucine solution, respectively. 50% OTSUKA sugar solution (glucose injection (glucose 100 g/200 mL); manufactured by OTSUKA PHAMACEUTICAL FACTORY, INC.; hereinafter also simply called glucose solution) was administered orally so as to be 3 g glucose/kg 30 minutes after the administration of the sample solution. Blood was collected from the tail vein 30 minutes, 60 minutes, 90 minutes, and 120 minutes after the start of sugar solution administration, and the blood sugar level was determined. Each blood sugar level was considered as 30 minutes value, 60 minutes value, 90 minutes value, and 120 minutes value, respectively in the non-anesthesia group.
# Anesthesia group: rats under overnight fasting conditions were divided into groups by body weight, blood was collected from a tail vein (Pre Value). […] The blood sugar level of the blood collected from the tail vein 30 minutes, 60 minutes, 90 minutes, and 120 minutes after the administration of sugar solution was determined. […]
# blood sugar level [3] = assay: Test Example 7: blood sugar decrease by oral administration of leucine, anesthesia vs non-anesthesia; conditions: 0.3 g/10 mL/kg leucine suspension orally
# Experimental: Non-anesthesia group: rats under overnight fasting conditions were divided into groups by body weight, and blood was collected from a tail vein (Pre Value). Shortly after that, 10 mL/kg of distilled water was orally administered to control group, and 0.3 g/10 mL/kg of leucine suspension to a sample solution group. Blood was collected from the tail vein 90 minutes after the administration of distilled water and the sample solution (90 minutes value).
# Anesthesia group: rats under overnight fasting conditions were divided into groups by body weight, and blood was collected from a tail vein (Pre Value). After the blood collection, 10 mL/kg of distilled water was orally administered to a control group, and 0.3 g/10 mL/kg of leucine suspension to a sample solution group. Saflow indwelling needle was kept in the tail vein 30 minutes after the sample solution was administered. After that, anesthesia was introduced by rapid intravenous administration of 30 mg/kg Pentobarbital Sodium. Thereafter, a gastight syringe disposed in micro syringe pump and an indwelling needle were connected through an extension tube, and anesthesia was maintained by continuous intravenous administration of 30 mg/kg/hr. Blood was collected from the tail vein opposite to that wherein the indwelling needle was kept 60 minutes after introduction of anesthesia (90 minutes value).
# In addition, blood was collected in a tube for hematocrit determination. After collected blood was centrifuged, plasma fraction was recovered and the blood sugar level was determined according to Test Example 1.
# The changed value of the blood sugar level was calculated by deducting Pre value of each rat plasma from 90 minutes value of each rat plasma.
# serum insulin value = assay: Test Example 6: serum insulin value with glucose+leucine
# Experimental: The serum insulin value was determined by ELISA Method (manufactured by Mevcodia Co.).
# as §1
Compound,time at which blood sugar level reached the maximum (peak) (blood sugar level [1]) [min],"area under the blood sugar level curve (AUC, 0-120 min) compared to control group (blood sugar level [2]; anesthesia group (Somnopentyl i.p.))","area under the blood sugar level curve (AUC, 0-120 min) compared to control group (blood sugar level [2]; non-anesthesia group)",decrease extent of blood sugar level in the anesthesia group compared to non-anesthesia group (blood sugar level [3]) [times],changed value of the blood sugar level (90 minutes value minus Pre value) (blood sugar level [3]; anesthesia group (Pentobarbital Sodium)),changed value of the blood sugar level (90 minutes value minus Pre value) (blood sugar level [3]; non-anesthesia group),increase of serum insulin value under anesthesia relative to non-anesthesia (serum insulin value; 30 minutes) [times],increase of serum insulin value under anesthesia relative to non-anesthesia (serum insulin value; 90 minutes) [times],increase of serum insulin value under anesthesia relative to non-anesthesia (serum insulin value; 180 minutes) [times],blood sugar level compared with glucose administration group (blood sugar level [1]; 90 and 180 minutes after the start of the test)
CC[C@H](C)[C@H](N)C(=O)O [isoleucine],30,significant decrease,decreased compared to that of the control group,,,,,,,
CC(C)C[C@H](N)C(=O)O [leucine],30,,,2.7,decrease in blood sugar level was recognized,decrease in blood sugar level was recognized,1.7,9.9,16.2,lower significantly
